Measured values from the supplement of paper PMC10307832.

Assays:
Experiment in all cases: relative viability (nuclei count vs DMSO), 5 days (fraction); higher = more cells survive
[1] = compound: CC(C)N(CCCNC(=O)Nc1ccc(C(C)(C)C)cc1)C[C@H]1O[C@@H](n2ccc3c(N)ncnc32)[C@H](O)[C@@H]1O + CS(=O)(=O)CCNCc1ccc(-c2ccc3ncnc(Nc4ccc(OCc5cccc(F)c5)c(Cl)c4)c3c2)o1 [Lapatinib] (partner 2 µM)
How it was run: (§1)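 Nuclei were stained with Hoechst during a one-step fixation (final 0.05% Triton X-100, 1% formaldehyde, 1 ug/ml Hoechst) carried out 5 days after dosing, then counted on 4× images. The cells, lung cancer lines in 1536-well plates, had been dosed by pin tool the day after seeding with one drug alone or a fixed anchor-drug dose plus five library-drug doses (not always all listed) in √10 steps. Relative viability is the nuclei count in treated wells divided by that in vehicle wells, and each value is the median of duplicate plates.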

[2] = compound: CC(C)N(CCCNC(=O)Nc1ccc(C(C)(C)C)cc1)C[C@H]1O[C@@H](n2ccc3c(N)ncnc32)[C@H](O)[C@@H]1O + Cc1nc(Nc2ncc(C(=O)Nc3c(C)cccc3Cl)s2)cc(N2CCN(CCO)CC2)n1 [Dasatinib] (partner 0.075 µM)
How it was run: as §1

Shikonin + OSI-027 = compound: CC(C)=CC[C@@H](O)C1=CC(=O)c2c(O)ccc(O)c2C1=O [Shikonin] + COc1cccc2cc(-c3nc([C@H]4CC[C@H](C(=O)O)CC4)n4ncnc(N)c34)[nH]c12 [OSI-027] (partner 0.5 µM)
How it was run: as §1

Shikonin + Pictilisib = compound: CC(C)=CC[C@@H](O)C1=CC(=O)c2c(O)ccc(O)c2C1=O [Shikonin] + CS(=O)(=O)N1CCN(Cc2cc3nc(-c4cccc5[nH]ncc45)nc(N4CCOCC4)c3s2)CC1 [Pictilisib] (partner 1 µM)
How it was run: as §1

Cell Line	relative viability ([1]; first compound 0.08 µM)	relative viability ([1]; first compound 0.253 µM)	relative viability ([1]; first compound 0.8 µM)	relative viability ([1]; first compound 2.53 µM)	relative viability ([1]; first compound 8 µM)	relative viability ([2]; first compound 0.08 µM)	relative viability ([2]; first compound 0.253 µM)	relative viability ([2]; first compound 0.8 µM)	relative viability ([2]; first compound 2.53 µM)	relative viability ([2]; first compound 8 µM)	relative viability (Shikonin + OSI-027; first compound 0.01 µM)	relative viability (Shikonin + OSI-027; first compound 0.1 µM)	relative viability (Shikonin + OSI-027; first compound 0.3162 µM)	relative viability (Shikonin + OSI-027; first compound 1 µM)	relative viability (Shikonin + Pictilisib; first compound 0.01 µM)	relative viability (Shikonin + Pictilisib; first compound 0.1 µM)	relative viability (Shikonin + Pictilisib; first compound 0.3162 µM)	relative viability (Shikonin + Pictilisib; first compound 1 µM)
NCI-H1437	0.703	0.77	0.773	0.722	0.715	0.359	0.37	0.443	0.337	0.327	0.936	0.833	0.849	0.952	0.424	0.421	0.416	0.477
NCI-H1792	0.878	0.851	0.839	0.831	0.902	0.768	0.785	0.871	0.71	0.783	0.7	0.63	0.853	0.805	0.306	0.206	0.293	0.308
NCI-H727	0.922	0.821	0.804	0.973	0.686	0.381	0.427	0.345	0.393	0.333	0.683	0.668	0.57	0.525	0.326	0.353	0.311	0.431
COR-L23	0.955	0.929	0.888	1.01	1.04	0.499	0.5	0.457	0.474	0.442	0.854	0.778	0.732	0.729	1.09	0.831	0.889	0.741
COR-L 105	0.365	0.317	0.417	0.403	0.355	0.298	0.347	0.308	0.31	0.391	0.685	0.723	0.613	0.611	0.428	0.358	0.438	0.336
LK-2	0.842	0.792	0.985	0.867	0.82	0.447	0.294	0.267	0.368	0.302	0.168	0.241	0.203	0.227	0.531	0.546	0.619	0.476
201T	0.99	1.07	0.863	1.02	1.01	0.562	0.548	0.505	0.565	0.593	0.795	0.994	0.715	0.976	0.621	0.754	0.669	0.796
NCI-H650	0.921	0.889	0.775	0.791	0.871	0.416	0.425	0.468	0.434	0.438	0.612	0.555	0.592	0.568	0.946		0.965	0.845
H3255	0.242	0.255	0.231	0.253	0.216	0.507	0.354	0.434	0.282	0.367	0.591	0.596	0.622	0.475	0.487	0.477	0.495	0.427
NCI-H661	0.441	0.467	0.519	0.404	0.523	0.875	0.787	0.892	0.885	0.821	0.685	0.774	0.782	0.842	0.372	0.427	0.39	0.38
NCI-H2085	0.782	0.681	0.747	0.858	0.798	0.248	0.218	0.288	0.232	0.26	0.832	0.973	0.73	0.773	0.41	0.47	0.424	0.411
NCI-H2347	0.965	0.999	0.654	0.968	0.934	0.305	0.305	0.326	0.296	0.293	0.444	0.425	0.391	0.398	0.701	0.764	0.582	0.573
NCI-H1944	0.764	0.88	0.652	0.847	0.795	0.197	0.197	0.257	0.243	0.222	0.397	0.462	0.423	0.459	0.352	0.379	0.353	0.392
NCI-H1793	0.607		0.554	0.599	0.636	0.368		0.355	0.36	0.38	0.223	0.271	0.291	0.301	0.359	0.251	0.241	0.304
NCI-H647	0.961		0.856	0.983	0.933	0.183	0.15		0.205	0.212	0.712	0.631	0.666	0.602	0.458	0.552	0.441	0.573
